Values of other authors, collected in patent US20250032643A1, “SYNTHETIC RECEPTORS” (UCL BUSINESS LTD, priority 2021, published 2025).
pKi: −log10 of the molar value.

Biological target: T1, α1B (Homo sapiens, UniProt P35368)
T1 sequence (P35368 1-520): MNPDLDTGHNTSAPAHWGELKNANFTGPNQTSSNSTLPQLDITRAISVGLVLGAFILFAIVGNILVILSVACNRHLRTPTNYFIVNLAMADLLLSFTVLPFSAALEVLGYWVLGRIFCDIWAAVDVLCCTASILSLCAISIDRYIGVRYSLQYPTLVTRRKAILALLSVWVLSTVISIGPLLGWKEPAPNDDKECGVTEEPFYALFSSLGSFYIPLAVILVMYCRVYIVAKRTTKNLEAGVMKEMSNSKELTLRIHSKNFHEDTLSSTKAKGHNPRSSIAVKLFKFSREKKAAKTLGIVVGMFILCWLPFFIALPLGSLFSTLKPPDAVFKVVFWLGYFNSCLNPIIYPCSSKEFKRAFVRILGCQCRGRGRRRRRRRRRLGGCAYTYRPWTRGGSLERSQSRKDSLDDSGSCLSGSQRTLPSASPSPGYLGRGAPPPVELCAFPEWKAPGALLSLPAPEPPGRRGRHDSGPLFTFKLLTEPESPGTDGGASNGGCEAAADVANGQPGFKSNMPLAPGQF
Details: read-out: binding affinity; native α1B receptor

Q: With `CN(C)CCOC(c1ccccc1)c1ccccc1` [DPH, diphenhydramine] as the molecule, how does the pKi read?
A: The pKi was under 6.00.
